Results: the kinase profiling compilation of Christmann-Franck et al. (2016)

Experiments:
Assay in all cases: radiometric filter-binding kinase assay, Kinase HotSpot
[1] = biological target: ABL1 (human) (UniProt P00519); conditions: compound 0.5 µM; ATP 10 µM
[2] = biological target: MYLK (human) (UniProt Q15746); conditions: compound 0.5 µM
[3] = biological target: PTK6 (human) (UniProt Q13882); conditions: compound 0.5 µM; ATP 10 µM
[4] = biological target: CAMK1 (human) (UniProt Q14012); conditions: compound 0.5 µM; ATP 10 µM
[5] = biological target: IKBKB (human) (UniProt O14920); conditions: compound 0.5 µM; ATP 10 µM
Chain of IKBKB (human) (O14920 whole entry, looked up): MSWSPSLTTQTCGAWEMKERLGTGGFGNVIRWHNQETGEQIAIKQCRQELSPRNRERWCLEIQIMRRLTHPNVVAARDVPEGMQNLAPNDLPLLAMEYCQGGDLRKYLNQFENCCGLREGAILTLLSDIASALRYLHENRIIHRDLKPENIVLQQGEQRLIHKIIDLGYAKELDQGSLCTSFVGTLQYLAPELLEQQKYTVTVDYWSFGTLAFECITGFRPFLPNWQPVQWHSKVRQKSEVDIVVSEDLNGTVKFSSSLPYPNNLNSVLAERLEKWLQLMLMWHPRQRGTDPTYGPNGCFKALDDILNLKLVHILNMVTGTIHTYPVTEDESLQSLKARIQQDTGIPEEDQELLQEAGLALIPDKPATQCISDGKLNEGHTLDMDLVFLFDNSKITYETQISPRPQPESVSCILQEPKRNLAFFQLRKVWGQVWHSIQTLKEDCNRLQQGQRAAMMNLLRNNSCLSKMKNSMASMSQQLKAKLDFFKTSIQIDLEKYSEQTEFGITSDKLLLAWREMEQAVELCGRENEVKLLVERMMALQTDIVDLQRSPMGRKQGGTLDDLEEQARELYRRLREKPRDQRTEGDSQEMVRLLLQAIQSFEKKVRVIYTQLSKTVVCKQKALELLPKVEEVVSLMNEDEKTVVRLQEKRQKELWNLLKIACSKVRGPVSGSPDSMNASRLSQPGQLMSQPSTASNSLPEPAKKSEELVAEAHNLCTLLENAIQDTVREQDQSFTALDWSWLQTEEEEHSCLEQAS

[6] = biological target: CDK2 CCNE1 (human) (UniProt P24941+P24864); conditions: compound 0.5 µM
[7] = biological target: PAK2 (human) (UniProt Q13177); conditions: compound 0.5 µM; ATP 10 µM
[8] = biological target: SRPK1 (human) (UniProt Q96SB4); conditions: compound 0.5 µM; ATP 10 µM
Chain of SRPK1 (human) (Q96SB4 whole entry, looked up): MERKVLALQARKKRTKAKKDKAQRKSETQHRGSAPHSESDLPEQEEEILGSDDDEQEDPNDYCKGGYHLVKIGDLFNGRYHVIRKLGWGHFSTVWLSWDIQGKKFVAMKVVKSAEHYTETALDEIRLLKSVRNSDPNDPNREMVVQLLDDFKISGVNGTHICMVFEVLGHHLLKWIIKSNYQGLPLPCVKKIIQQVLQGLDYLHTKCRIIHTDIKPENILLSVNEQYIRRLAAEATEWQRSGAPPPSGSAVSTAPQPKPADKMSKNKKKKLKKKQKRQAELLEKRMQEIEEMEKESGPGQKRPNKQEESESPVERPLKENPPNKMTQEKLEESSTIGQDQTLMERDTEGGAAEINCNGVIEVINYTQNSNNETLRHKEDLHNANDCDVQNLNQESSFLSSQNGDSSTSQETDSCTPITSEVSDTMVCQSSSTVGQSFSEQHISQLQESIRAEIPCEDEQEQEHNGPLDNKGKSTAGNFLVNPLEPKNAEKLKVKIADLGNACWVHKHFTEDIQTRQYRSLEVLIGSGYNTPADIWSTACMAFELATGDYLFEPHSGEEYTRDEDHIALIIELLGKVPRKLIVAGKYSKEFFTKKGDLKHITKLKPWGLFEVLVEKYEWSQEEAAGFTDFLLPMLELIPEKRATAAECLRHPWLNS

[9] = biological target: AKT3 (human) (UniProt Q9Y243); conditions: compound 0.5 µM; ATP 10 µM
[10] = biological target: PRKX (human) (UniProt P51817); conditions: compound 0.5 µM; ATP 10 µM
Chain of PRKX (human) (P51817 whole entry, looked up): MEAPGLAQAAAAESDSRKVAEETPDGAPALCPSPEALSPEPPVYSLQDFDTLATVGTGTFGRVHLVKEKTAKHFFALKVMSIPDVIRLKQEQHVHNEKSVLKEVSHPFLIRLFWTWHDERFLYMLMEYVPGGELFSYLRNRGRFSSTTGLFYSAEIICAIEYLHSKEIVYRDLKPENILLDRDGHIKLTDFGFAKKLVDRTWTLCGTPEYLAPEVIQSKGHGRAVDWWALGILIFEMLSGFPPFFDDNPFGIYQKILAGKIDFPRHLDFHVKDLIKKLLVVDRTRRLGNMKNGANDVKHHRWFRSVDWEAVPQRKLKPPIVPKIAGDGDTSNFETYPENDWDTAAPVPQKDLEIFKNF

[11] = biological target: STK3 (human) (UniProt Q13188); conditions: compound 0.5 µM; ATP 10 µM
[12] = biological target: EPHA8 (human) (UniProt P29322); conditions: compound 0.5 µM; ATP 10 µM
[13] = biological target: MYLK2 (human) (UniProt Q9H1R3); conditions: compound 0.5 µM; ATP 10 µM
[14] = biological target: CHUK (human) (UniProt O15111); conditions: compound 0.5 µM; ATP 10 µM
Chain of CHUK (human) (O15111 whole entry, looked up): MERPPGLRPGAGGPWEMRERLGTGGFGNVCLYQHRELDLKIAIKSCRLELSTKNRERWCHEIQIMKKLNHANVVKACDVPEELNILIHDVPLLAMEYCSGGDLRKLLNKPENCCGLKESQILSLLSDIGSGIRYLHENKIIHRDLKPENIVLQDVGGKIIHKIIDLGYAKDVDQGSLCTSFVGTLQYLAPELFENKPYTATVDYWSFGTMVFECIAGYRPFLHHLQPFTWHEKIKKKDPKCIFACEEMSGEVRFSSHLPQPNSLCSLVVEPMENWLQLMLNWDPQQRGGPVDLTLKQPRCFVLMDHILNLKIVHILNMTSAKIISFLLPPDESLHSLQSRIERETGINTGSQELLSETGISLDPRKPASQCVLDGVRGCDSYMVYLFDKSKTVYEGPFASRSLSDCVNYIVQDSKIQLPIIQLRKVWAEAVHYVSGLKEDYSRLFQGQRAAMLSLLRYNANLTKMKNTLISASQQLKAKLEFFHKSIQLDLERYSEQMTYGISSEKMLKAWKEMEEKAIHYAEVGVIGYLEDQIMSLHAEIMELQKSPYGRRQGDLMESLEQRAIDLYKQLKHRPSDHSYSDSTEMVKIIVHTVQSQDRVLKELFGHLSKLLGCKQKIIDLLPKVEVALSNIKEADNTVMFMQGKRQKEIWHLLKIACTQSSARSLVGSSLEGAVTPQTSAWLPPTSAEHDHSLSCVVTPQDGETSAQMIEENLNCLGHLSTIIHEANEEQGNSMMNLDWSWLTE

[15] = biological target: CAMK4 (human) (UniProt Q16566); conditions: compound 0.5 µM; ATP 10 µM
[16] = biological target: CDK2 CCNA2 (human) (UniProt P24941+P20248); conditions: compound 0.5 µM
Chain of CDK2 CCNA2 (human) (P20248 whole entry, looked up, other chains not shown): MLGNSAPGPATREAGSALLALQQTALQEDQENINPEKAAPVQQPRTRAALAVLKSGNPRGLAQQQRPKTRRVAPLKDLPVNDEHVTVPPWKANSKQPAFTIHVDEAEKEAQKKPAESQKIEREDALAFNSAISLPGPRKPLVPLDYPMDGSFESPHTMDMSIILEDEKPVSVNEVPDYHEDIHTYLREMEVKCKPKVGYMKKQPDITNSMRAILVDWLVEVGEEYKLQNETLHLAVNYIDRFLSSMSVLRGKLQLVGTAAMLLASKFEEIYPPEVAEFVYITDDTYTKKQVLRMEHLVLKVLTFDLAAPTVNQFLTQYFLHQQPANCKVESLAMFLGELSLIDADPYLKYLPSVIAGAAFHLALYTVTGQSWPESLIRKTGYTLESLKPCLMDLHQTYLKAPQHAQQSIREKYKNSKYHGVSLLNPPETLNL

[17] = biological target: ADRBK1 (human) (UniProt P25098); conditions: compound 0.5 µM; ATP 10 µM
[18] = biological target: CDK7 CCNH MNAT1 (human) (UniProt P50613+P51948+P51946); conditions: compound 0.5 µM
[19] = biological target: PRKD1 (human) (UniProt Q15139); conditions: compound 0.5 µM; ATP 10 µM
[20] = biological target: CDK1 CCNA2 (human) (UniProt P06493+P20248); conditions: compound 0.5 µM
Chain of CDK1 CCNA2 (human) (P06493 whole entry, looked up): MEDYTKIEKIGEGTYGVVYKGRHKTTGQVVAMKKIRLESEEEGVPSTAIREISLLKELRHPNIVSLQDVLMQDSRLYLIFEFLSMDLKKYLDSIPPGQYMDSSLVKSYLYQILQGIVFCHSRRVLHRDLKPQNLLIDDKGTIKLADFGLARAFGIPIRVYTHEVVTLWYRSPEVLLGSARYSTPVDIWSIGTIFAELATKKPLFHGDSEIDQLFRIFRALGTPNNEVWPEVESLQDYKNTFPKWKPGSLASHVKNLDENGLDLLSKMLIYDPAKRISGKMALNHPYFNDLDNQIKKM
Chain of CDK1 CCNA2 (human) (P20248 whole entry, looked up): as the sequence (P20248 whole entry, looked up, other chains not shown) above

[21] = biological target: GSG2 (human) (UniProt Q8TF76); conditions: compound 0.5 µM; ATP 10 µM
[22] = biological target: MAPK10 (human) (UniProt P53779); conditions: compound 0.5 µM; ATP 10 µM
Chain of MAPK10 (human) (P53779 whole entry, looked up): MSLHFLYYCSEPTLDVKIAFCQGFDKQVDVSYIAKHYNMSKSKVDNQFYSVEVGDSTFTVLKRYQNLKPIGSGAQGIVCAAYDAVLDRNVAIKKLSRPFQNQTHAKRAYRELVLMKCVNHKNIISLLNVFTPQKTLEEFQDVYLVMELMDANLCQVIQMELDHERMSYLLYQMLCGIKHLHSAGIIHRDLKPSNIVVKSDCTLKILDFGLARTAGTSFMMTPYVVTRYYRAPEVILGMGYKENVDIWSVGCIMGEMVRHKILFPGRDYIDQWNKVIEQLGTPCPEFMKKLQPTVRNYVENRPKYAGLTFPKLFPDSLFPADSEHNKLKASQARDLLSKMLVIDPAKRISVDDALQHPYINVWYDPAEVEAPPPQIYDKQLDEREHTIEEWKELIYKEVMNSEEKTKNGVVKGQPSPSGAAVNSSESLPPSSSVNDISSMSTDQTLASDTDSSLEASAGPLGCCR

[23] = biological target: BTK (human) (UniProt Q06187); conditions: compound 0.5 µM; ATP 10 µM
[24] = biological target: MATK (human) (UniProt P42679); conditions: compound 0.5 µM; ATP 10 µM
[25] = biological target: NTRK1 (human) (UniProt P04629); conditions: compound 0.5 µM; ATP 10 µM
[26] = biological target: MAPK3 (human) (UniProt P27361); conditions: compound 0.5 µM; ATP 10 µM
[27] = biological target: DYRK4 (human) (UniProt Q9NR20); conditions: compound 0.5 µM; ATP 10 µM
[28] = biological target: PKN1 (human) (UniProt Q16512); conditions: compound 0.5 µM; ATP 10 µM
[29] = biological target: RIPK2 (human) (UniProt O43353); conditions: compound 0.5 µM; ATP 10 µM
[30] = biological target: TBK1 (human) (UniProt Q9UHD2); conditions: compound 0.5 µM; ATP 10 µM
[31] = biological target: ABL2 (human) (UniProt P42684); conditions: compound 0.5 µM; ATP 10 µM
[32] = biological target: MST1R (human) (UniProt Q04912); conditions: compound 0.5 µM; ATP 10 µM
[33] = biological target: MAP3K3 (human) (UniProt Q99759); conditions: compound 0.5 µM; ATP 10 µM
[34] = biological target: LTK (human) (UniProt P29376); conditions: compound 0.5 µM; ATP 10 µM
[35] = biological target: GSK3A (human) (UniProt P49840); conditions: compound 0.5 µM; ATP 10 µM
[36] = biological target: CAMK2A (human) (UniProt Q9UQM7); conditions: compound 0.5 µM; ATP 10 µM
[37] = biological target: NTRK3 (human) (UniProt Q16288); conditions: compound 0.5 µM; ATP 10 µM
[38] = biological target: INSRR (human) (UniProt P14616); conditions: compound 0.5 µM; ATP 10 µM
Chain of INSRR (human) (P14616 whole entry, looked up): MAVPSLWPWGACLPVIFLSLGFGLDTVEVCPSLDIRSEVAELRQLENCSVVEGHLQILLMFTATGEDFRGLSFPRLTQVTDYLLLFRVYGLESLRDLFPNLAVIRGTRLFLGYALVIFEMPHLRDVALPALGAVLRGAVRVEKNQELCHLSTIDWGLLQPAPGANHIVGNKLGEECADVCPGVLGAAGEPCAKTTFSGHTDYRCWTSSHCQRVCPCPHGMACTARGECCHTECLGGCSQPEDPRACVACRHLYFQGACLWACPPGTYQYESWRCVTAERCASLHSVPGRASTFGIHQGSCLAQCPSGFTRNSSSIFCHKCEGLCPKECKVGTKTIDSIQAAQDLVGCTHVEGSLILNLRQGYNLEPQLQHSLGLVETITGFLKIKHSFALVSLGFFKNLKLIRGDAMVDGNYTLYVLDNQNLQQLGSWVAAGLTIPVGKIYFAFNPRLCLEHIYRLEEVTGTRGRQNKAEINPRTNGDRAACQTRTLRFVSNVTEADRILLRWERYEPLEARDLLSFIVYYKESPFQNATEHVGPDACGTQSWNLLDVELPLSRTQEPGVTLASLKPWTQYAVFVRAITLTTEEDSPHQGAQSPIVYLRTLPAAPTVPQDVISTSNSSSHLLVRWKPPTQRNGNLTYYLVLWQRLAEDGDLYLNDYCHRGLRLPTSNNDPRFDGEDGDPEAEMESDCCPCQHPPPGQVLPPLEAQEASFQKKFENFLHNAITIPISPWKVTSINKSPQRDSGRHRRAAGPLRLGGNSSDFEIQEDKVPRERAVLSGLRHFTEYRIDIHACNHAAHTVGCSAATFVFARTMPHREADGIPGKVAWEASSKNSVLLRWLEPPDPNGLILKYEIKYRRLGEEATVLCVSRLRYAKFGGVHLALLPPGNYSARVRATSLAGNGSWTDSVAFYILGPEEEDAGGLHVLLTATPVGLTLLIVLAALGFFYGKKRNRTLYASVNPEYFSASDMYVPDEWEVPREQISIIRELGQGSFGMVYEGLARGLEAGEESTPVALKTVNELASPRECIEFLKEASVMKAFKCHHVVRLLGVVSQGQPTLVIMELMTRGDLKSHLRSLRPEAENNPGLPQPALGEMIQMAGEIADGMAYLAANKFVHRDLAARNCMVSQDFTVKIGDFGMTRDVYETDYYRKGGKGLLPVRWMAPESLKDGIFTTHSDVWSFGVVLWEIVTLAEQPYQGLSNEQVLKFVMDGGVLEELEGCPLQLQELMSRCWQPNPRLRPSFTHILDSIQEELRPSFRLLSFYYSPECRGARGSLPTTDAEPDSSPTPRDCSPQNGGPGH

[39] = biological target: MET (human) (UniProt P08581); conditions: compound 0.5 µM; ATP 10 µM
[40] = biological target: STK25 (human) (UniProt O00506); conditions: compound 0.5 µM; ATP 10 µM
[41] = biological target: CSNK1G2 (human) (UniProt P78368); conditions: compound 0.5 µM; ATP 10 µM

SMILES: O=c1[nH]c2ccccc2n1C1CCN(Cc2ccc(-c3nc4cc5[nH]cnc5cc4nc3-c3ccccc3)cc2)CC1
- residual activity [1]: 98.2%
- residual activity [2]: 104%
- residual activity [3]: 91.1%
- residual activity [4]: 95.1%
- residual activity [5]: 101%
- residual activity [6]: 95.6%
- residual activity [7]: 99.2%
- residual activity [8]: 106%
- residual activity [9]: 103%
- residual activity [10]: 101%
- residual activity [11]: 103%
- residual activity [12]: 106%
- residual activity [13]: 103%
- residual activity [14]: 90.1%
- residual activity [15]: 101%
- residual activity [16]: 98%
- residual activity [17]: 95.3%
- residual activity [18]: 99.1%
- residual activity [19]: 94.7%
- residual activity [20]: 102%
- residual activity [21]: 106%
- residual activity [22]: 96%
- residual activity [23]: 98.4%
- residual activity [24]: 102%
- residual activity [25]: 99.4%
- residual activity [26]: 118%
- residual activity [27]: 109%
- residual activity [28]: 90.3%
- residual activity [29]: 89.2%
- residual activity [30]: 92.7%
- residual activity [31]: 96.8%
- residual activity [32]: 111%
- residual activity [33]: 101%
- residual activity [34]: 95.6%
- residual activity [35]: 100%
- residual activity [36]: 109%
- residual activity [37]: 116%
- residual activity [38]: 101%
- residual activity [39]: 102%
- residual activity [40]: 89.8%
- residual activity [41]: 101%
